Like-named read-outs stand apart in the source and are kept apart here.
Experiments:
[1] = target: T1, VLA-4 (α4β1 integrin) binding to immobilized VCAM-1 (Homo sapiens, UniProt P05556+P13612); experiment: VLA-4/VCAM-1 Screening Assay (solid-phase, dual antibody ELISA)
T1 construct: followed by 10 μl of Ramos cell-derived VLA-4; endogenous in cells; host or cells: Ramos cells (VLA-4 preparation derived from the cells)
Experimental: VLA-4 antagonist activity, defined as ability to compete for binding to immobilized VCAM-1 was quantitated using a solid-phase, dual antibody ELISA. VLA-4 (α4β1 integrin) bound to VCAM-1 was detected by a complex of anti-integrin β1 antibody: HRP-conjugated anti-mouse IgG: chromogenic substrate (K-Blue). Initially, this entailed coating 96 well plates (Nunc Maxisorp) with recombinant human VCAM-1 (0.4 μg in 100 μl PBS), sealing each plate and then allowing the plates to stand at 4° C for Å18 hr. […] On the day of assay, all plates were washed twice with VCAM Assay Buffer (200 μl/well of 50 mM Tris-HCl, 100 mM NaCl, 1 mM MnCl2, 0.05% Tween 20; pH 7.4). Test compounds were dissolved in 100% DMSO and then diluted 1:20 in VCAM Assay Buffer supplemented with 1 mg/mL BSA (i.e., final DMSO=5%). […] 100 μl per well of each dilution was added to the VCAM-coated plates, followed by 10 μl of Ramos cell-derived VLA-4. These plates were sequentially mixed on a platform shaker for 1 min, incubated for 2 hr at 37° C. and then washed four times with 200 μl/well VCAM Assay Buffer. 100 μl of mouse anti-human integrin β1 antibody was added to each well (0.6 μg/mL in VCAM Assay Buffer+1 mg/mL BSA) and allowed to incubate for 1 hr at 37° C. At the conclusion of this incubation period, all plates were washed four times with VCAM Assay Buffer (200 μl/well). A corresponding second antibody, HRP-conjugated goat anti-mouse IgG (100 μl per well @1:800 dilution in VCAM Assay Buffer+1 mg/mL BSA), was then added to each well, followed by a 1 hr incubation at room temperature and concluded by three washes (200 μl/well) with VCAM Assay Buffer. Color development was initiated by addition of 100 μl K-Blue per well (15 min incubation, room temp) and terminated by addition of 100 μl Red Stop Buffer per well. […] Results were calculated as % inhibition of total binding (i.e., VLA-4+VCAM-1 in the absence of test compound).

[2] = target: T2, cell-surface VLA-4 (α4β1 integrin) on Ramos cells binding to immobilized VCAM-1 (Homo sapiens, UniProt P05556+P13612); experiment: Ramos (VLA-4)/VCAM-1 Cell-Based Screening Assay (cell adhesion)
T2 construct: Ramos cells bearing cell-surface VLA-4; endogenous in cells; host or cells: Ramos cells (VLA-4); VCAM-1 purified from CHO cell culture media
Excerpt: Calcein-AM was purchased from Molecular Probes Inc.
VLA-4 (α4β1 integrin) antagonist activity, defined as ability to compete with cell-surface VLA-4 for binding to immobilized VCAM-1, was quantitated using a Ramos-VCAM-1 cell adhesion assay. Ramos cells bearing cell-surface VLA-4, were labeled with a fluorescent dye (Calcein-AM) and allowed to bind VCAM-1 in the presence or absence of test compounds.
Initially, this entailed coating 96 well plates (Nunc Maxisorp) with recombinant human VCAM-1 (100 ng in 100 μl PBS), sealing each plate and allowing the plates to stand at 4° C for Å18 hr. The VCAM-coated plates were subsequently washed twice with 0.05% Tween-20 in PBS, and then blocked for 1hr (room temperature) with 200 μl of Blocking Buffer (1% BSA/0.02% thimerosal) to reduce non-specific binding. Following the incubation with Blocking Buffer, plates were inverted, blotted and the remaining buffer aspirated. Each plate was then washed with 300 μl PBS, inverted and the remaining PBS aspirated.
Test compounds were dissolved in 100% DMSO and then diluted 1:25 in VCAM Cell Adhesion Assay Buffer (4 mM CaCl2, 4 mM MgCl2 in 50 mM TRIS-HCl, pH 7.5) (final DMSO=4%). […] 100 μl/well of each dilution was added to the VCAM-coated plates, followed by 100 μl of Ramos cells (200,000 cells/well in 1% BSA/PBS). […] Plates were inverted to remove non-adherent cells, blotted and 300 μl/well PBS added. Plates were again inverted, blotted and the remaining buffer gently aspirated. 100 μl Lysis Buffer (0.1% SDS in 50 mM TRIS-HCl, pH 8.5) was added to each well and agitated for 2 min on a rotary shaking platform.

[3] = IC50 nM, Ramos cell-derived VLA-4, recombinant human VCAM-1 coated plates, 2 hr at 37° C.
[4] = IC50 in Ramos Cell Based Assay (nM), Calcein-AM labeled Ramos cells, VCAM-1 coated plates, 45 min at room temperature
[5] = Ramos cell-derived VLA-4, recombinant human VCAM-1 coated plates, 2 hr at 37° C., read-out: IC50
[6] = Calcein-AM labeled Ramos cells, VCAM-1 coated plates, 45 min at room temperature, read-out: IC50 in Ramos Cell Based Assay

T2 sequence (P13612 34-1032): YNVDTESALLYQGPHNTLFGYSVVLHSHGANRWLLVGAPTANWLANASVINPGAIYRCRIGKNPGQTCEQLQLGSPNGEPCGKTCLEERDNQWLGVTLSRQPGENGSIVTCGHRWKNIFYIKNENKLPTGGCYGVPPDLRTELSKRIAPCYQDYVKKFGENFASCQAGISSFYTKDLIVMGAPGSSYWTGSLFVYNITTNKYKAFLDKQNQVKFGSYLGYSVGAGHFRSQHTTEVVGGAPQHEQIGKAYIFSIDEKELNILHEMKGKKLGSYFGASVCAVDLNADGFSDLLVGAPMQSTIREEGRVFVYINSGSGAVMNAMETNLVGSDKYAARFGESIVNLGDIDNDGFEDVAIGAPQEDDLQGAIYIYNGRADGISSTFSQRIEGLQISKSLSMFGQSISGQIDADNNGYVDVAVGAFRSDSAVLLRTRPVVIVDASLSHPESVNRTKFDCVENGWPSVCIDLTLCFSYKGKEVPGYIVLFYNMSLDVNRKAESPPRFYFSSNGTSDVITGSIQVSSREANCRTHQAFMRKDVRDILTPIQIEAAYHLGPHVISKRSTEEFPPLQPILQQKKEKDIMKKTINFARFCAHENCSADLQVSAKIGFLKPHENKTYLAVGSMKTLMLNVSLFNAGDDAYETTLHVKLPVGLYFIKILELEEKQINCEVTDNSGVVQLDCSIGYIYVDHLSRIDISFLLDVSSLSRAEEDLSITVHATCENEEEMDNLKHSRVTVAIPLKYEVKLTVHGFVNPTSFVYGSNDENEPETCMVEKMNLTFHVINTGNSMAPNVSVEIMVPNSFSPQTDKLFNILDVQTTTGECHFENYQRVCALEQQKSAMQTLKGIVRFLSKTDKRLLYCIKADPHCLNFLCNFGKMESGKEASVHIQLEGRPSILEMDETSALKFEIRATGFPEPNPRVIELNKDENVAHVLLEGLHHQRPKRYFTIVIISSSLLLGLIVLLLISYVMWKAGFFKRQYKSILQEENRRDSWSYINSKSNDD
T2 sequence (P05556 21-798): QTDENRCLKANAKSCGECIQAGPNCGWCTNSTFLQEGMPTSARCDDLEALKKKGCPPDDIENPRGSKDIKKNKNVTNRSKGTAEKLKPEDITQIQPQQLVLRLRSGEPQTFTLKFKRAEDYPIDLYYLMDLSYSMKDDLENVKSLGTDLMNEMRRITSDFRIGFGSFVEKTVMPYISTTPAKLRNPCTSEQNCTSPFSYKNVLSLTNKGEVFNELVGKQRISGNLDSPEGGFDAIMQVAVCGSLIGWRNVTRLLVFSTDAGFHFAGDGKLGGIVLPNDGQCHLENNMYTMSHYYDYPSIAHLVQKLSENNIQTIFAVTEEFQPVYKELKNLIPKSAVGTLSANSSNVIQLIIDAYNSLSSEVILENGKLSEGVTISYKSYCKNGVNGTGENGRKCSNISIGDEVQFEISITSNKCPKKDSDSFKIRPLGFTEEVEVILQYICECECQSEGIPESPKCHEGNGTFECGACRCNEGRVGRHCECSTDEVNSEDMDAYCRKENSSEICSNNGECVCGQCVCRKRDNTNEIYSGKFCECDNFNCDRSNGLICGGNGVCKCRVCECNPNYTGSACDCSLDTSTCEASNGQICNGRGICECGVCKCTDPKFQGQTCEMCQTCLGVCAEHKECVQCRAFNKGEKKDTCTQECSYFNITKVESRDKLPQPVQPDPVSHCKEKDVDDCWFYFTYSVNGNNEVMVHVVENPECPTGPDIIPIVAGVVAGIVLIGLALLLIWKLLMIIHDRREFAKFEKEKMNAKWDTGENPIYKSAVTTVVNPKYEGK
T1 sequence (P13612 34-1032): as the sequence (P13612 34-1032) above
T1 sequence (P05556 21-798): as the sequence (P05556 21-798) above

Row | Compound | IC50 [1, 3] [nM] | IC50 [2, 4] [nM] | IC50 [1, 5] [nM] | IC50 [2, 6] [nM] | further results
1 | Cn1nnnc1-c1ccc(CC2(C(=O)N[C@@H](Cc3ccc(NC(=O)c4c(Cl)cccc4Cl)cc3)C(=O)O)CCC2)cc1 [Example 57] | 0.42 | 27 | – | – | –
2 | CC(C)(C)OC(=O)NCCC1(C(=O)N[C@@H](Cc2ccc(NC(=O)c3c(Cl)cccc3Cl)cc2)C(=O)O)CCCC1 [Example 254] | – | – | 2 | 360 | –
3 | Cc1cc([N+](=O)[O-])ccc1C(=O)Nc1ccc(C[C@H](NC(=O)C2(C)CC2(Cl)Cl)C(=O)O)cc1 (stereo partly drawn) [Example 100] | – | – | 0.26 | 54.5 | –
4 | COc1ccc(C(=O)NCCC2(C(=O)N[C@@H](Cc3ccc(NC(=O)c4c(Cl)cccc4Cl)cc3)C(=O)O)CCCC2)cc1 [Example 257] | 40 | 635 | – | – | –
5 | COc1ccc(CC2(C(=O)N[C@@H](Cc3ccc(NC(=O)c4c(Cl)cccc4Cl)cc3)C(=O)O)CCCC2)cc1 [Example 43, 4-[[(2,6-Dichlorophenyl)carbonyl]amino]-N-[[1-[(4-methoxyphenyl)methyl]cyclopentyl]carbonyl]-L-phenylalanine] | – | – | 0.63 | 36.5 | –
6 | O=C(NCCC1(C(=O)N[C@@H](Cc2ccc(NC(=O)c3c(Cl)cccc3Cl)cc2)C(=O)O)CCCC1)c1ccno1 [Example 158] | – | – | 5 | 124 | –
7 | COCCCCC1(C(=O)N[C@@H](Cc2ccc(NC(=O)c3c(Cl)cccc3Cl)cc2)C(=O)O)CCCC1 [Example 250] | 0.32 | – | – | 28 | –
8 | CNC(=O)NCCC1(C(=O)N[C@@H](Cc2ccc(NC(=O)c3c(Cl)cccc3Cl)cc2)C(=O)O)CCCC1 [Example 187, 4-[[(2,6-Dichlorophenyl)carbonyl]amino]-N-[[1-[2-[[(methylamino)carbonyl]amino]ethyl]cyclopentyl]carbonyl]-L-phenylalanine] | – | – | 0.26 | 5.7 | –
9 | N#CCC1(C(=O)N[C@@H](Cc2ccc(NC(=O)c3c(Cl)cccc3Cl)cc2)C(=O)O)CCCC1 [Example 272] | – | 96 | 1 | – | –
10 | CC(=O)NCCCCC1(C(=O)N[C@@H](Cc2ccc(NC(=O)c3c(Cl)cccc3Cl)cc2)C(=O)O)CCCC1 [Example 259] | 3.6 | 129 | – | – | –
11 | COC(=O)N(C)CCC1(C(=O)N[C@@H](Cc2ccc(NC(=O)c3c(Cl)cccc3Cl)cc2)C(=O)O)CCCC1 [Example 202, 4-[[(2,6-Dichlorophenyl)carbonyl]amino]-N-[[1-[2-[(methoxycarbonyl)(methyl)amino]ethyl]cyclopentyl]carbonyl]-L-phenylalanine] | – | – | 1 | 31 | –
12 | O=C(Nc1ccc(C[C@H](NC(=O)C2(CCNC(=O)C3CCCN3C(=O)C(F)(F)F)CCCC2)C(=O)O)cc1)c1c(Cl)cccc1Cl (stereo partly drawn) [Example 159] | – | – | 6.4 | 313 | –
13 | CC(=O)N(C)CCC1(C(=O)N[C@@H](Cc2ccc(NC(=O)c3c(Cl)cccc3Cl)cc2)C(=O)O)CCCC1 [Example 200, 4-[[(2,6-Dichlorophenyl)carbonyl]amino]-N-[[1-[2-[(acetyl)(methyl)amino]ethyl]cyclopentyl]carbonyl]-L-phenylalanine] | – | – | 0.81 | 19 | –
14 | C/N=C(\S)NCCC1(C(=O)N[C@@H](Cc2ccc(NC(=O)c3c(Cl)cccc3Cl)cc2)C(=O)O)CCCC1 [Example 192] | 0.14 | 22 | – | – | –
15 | O=C(NCCC1(C(=O)N[C@@H](Cc2ccc(NC(=O)c3c(Cl)cccc3Cl)cc2)C(=O)O)CCCC1)c1ccncc1 [Example 160] | – | – | – | – | IC50 [1]: 5.8 nM; IC50 [2]: 328 nM
16 | [N-]=[N+]=NCCC1(C(=O)N[C@@H](Cc2ccc(NC(=O)c3c(Cl)cccc3Cl)cc2)C(=O)O)CCCC1 [Example 58] | – | 47 | 0.58 | – | –
17 | Cn1nnnc1-c1ccc(CC2(C(=O)N[C@@H](Cc3ccc(NC(=O)c4c(Cl)cccc4Cl)cc3)C(=O)O)CCCC2)cc1 [Example 55] | 0.47 | – | – | 18.5 | –
18 | NCCC1(C(=O)N[C@@H](Cc2ccc(NC(=O)c3c(Cl)cccc3Cl)cc2)C(=O)O)CCCC1 [Example 252] | 5.1 | 228 | – | – | –

Source: US6455550B1, “N-alkanoylphenylalanine derivatives” (Hoffmann-La Roche Inc., priority 1997, dated 2002)
